{"source": "patent US5232849A", "about": "“Bacteriocin from lactococcus lactis subspecies lactis” (Quest International Flavors & Food Ingredients Company …, priority 1992, dated 1993)", "test_in_all_cases": "Spectrum of antimicrobial activity", "set-up_in_all_cases": "key: + = inhibition; - = no inhibition", "settings_in_all_cases": "pure, titer 3200 AU/ml", "key": {"L. plantarum 346": {"system": "L. plantarum 346", "format": "cell-based, Lactobacillus plantarum", "method": "(§1) Bacteriocin assay. To ascertain if the antibacterial substance is secreted into liquid medium, the cultures were grown in MRS broth and cell free filtrates of turbid cultures were made and the filtrate posted on a seeded semisolid agar overlay of the indicator. Antibacterial activity was quantitated by assigning arbitrary units. One arbitrary unit (AU) was defined as 5 μl of the culture supernatant yielding a definite, clear zone of inhibition on the indicator lawn. The titer was expressed as the reciprocal of the highest dilution of supernatant showing inhibition."}, "L. plantarum 355": {"system": "L. plantarum 355", "format": "cell-based, Lactobacillus plantarum", "method": "as §1"}, "L. casei 326": {"system": "L. casei 326", "format": "cell-based, Lactobacillus casei", "method": "as §1"}, "L. casei 842": {"system": "L. casei 842", "format": "cell-based, Lactobacillus casei", "method": "as §1"}, "L. brevis 329": {"system": "L. brevis 329", "format": "cell-based, Lactobacillus brevis", "method": "as §1"}, "L. brevis 888": {"system": "L. brevis 888", "format": "cell-based, Lactobacillus brevis", "method": "as §1"}, "L. fermentum 342": {"system": "L. fermentum 342", "format": "cell-based, Lactobacillus fermentum", "method": "as §1"}, "L. fermentum 701": {"system": "L. fermentum 701", "format": "cell-based, Lactobacillus fermentum", "method": "as §1"}, "P. acidilactici A": {"system": "P. acidilactici A", "format": "cell-based, Pediococcus acidilactici", "method": "as §1"}, "P. acidilactici B": {"system": "P. acidilactici B", "format": "cell-based, Pediococcus acidilactici", "method": "as §1"}, "P. acidilactici C": {"system": "P. acidilactici C", "format": "cell-based, Pediococcus acidilactici", "method": "as §1"}, "P. acidilactici D": {"system": "P. acidilactici D", "format": "cell-based, Pediococcus acidilactici", "method": "as §1"}, "P. acidilactici PAC 1.0": {"system": "P. acidilactici PAC 1.0", "format": "cell-based, Pediococcus acidilactici", "method": "as §1"}, "P. pentosaceus FBB63C": {"system": "P. pentosaceus FBB63C", "format": "cell-based, Pediococcus pentosaceus", "method": "as §1"}, "L. monocytogenes 04": {"system": "L. monocytogenes 04", "format": "cell-based", "method": "as §1"}, "L. monocytogenes 08": {"system": "L. monocytogenes 08", "format": "cell-based", "method": "as §1"}, "L. monocytogenes 36": {"system": "L. monocytogenes 36", "format": "cell-based", "method": "as §1"}, "L. monocytogenes 38": {"system": "L. monocytogenes 38", "format": "cell-based", "method": "as §1"}, "L. monocytogenes 59": {"system": "L. monocytogenes 59", "format": "cell-based", "method": "as §1"}, "L. monocytogenes 62": {"system": "L. monocytogenes 62", "format": "cell-based", "method": "as §1"}, "L. monocytogenes 69": {"system": "L. monocytogenes 69", "format": "cell-based", "method": "as §1"}, "S. mutans GS5": {"system": "S. mutans GS5", "format": "cell-based, Streptococcus mutans", "method": "as §1"}, "S. mutans V262": {"system": "S. mutans V262", "format": "cell-based, Streptococcus mutans", "method": "as §1"}, "B. subtilis RM125": {"system": "B. subtilis RM125", "format": "cell-based, Bacillus subtilis", "method": "as §1"}, "B. subtilis amylase^+": {"system": "B. subtilis amylase^+", "format": "cell-based, Bacillus subtilis", "method": "as §1"}, "L. lactis LLA 1.0": {"system": "L. lactis LLA 1.0", "format": "cell-based, Lactococcus lactis", "method": "as §1"}, "L. lactis LLA 2.0": {"system": "L. lactis LLA 2.0", "format": "cell-based, Lactococcus lactis", "method": "as §1"}}}
{"substance": "nisin [Nisin Pure]", "values": [{"measurement": "inhibition of L. plantarum 346", "setting": "L. plantarum 346", "result": "+"}, {"measurement": "inhibition of L. plantarum 355", "setting": "L. plantarum 355", "result": "+"}, {"measurement": "inhibition of L. casei 326", "setting": "L. casei 326", "result": "+"}, {"measurement": "inhibition of L. casei 842", "setting": "L. casei 842", "result": "+"}, {"measurement": "inhibition of L. brevis 329", "setting": "L. brevis 329", "result": "+"}, {"measurement": "inhibition of L. brevis 888", "setting": "L. brevis 888", "result": "+"}, {"measurement": "inhibition of L. fermentum 342", "setting": "L. fermentum 342", "result": "+"}, {"measurement": "inhibition of L. fermentum 701", "setting": "L. fermentum 701", "result": "+"}, {"measurement": "inhibition of P. acidilactici A", "setting": "P. acidilactici A", "result": "+"}, {"measurement": "inhibition of P. acidilactici B", "setting": "P. acidilactici B", "result": "+"}, {"measurement": "inhibition of P. acidilactici C", "setting": "P. acidilactici C", "result": "+"}, {"measurement": "inhibition of P. acidilactici D", "setting": "P. acidilactici D", "result": "+"}, {"measurement": "inhibition of P. acidilactici PAC 1.0", "setting": "P. acidilactici PAC 1.0", "result": "+"}, {"measurement": "inhibition of P. pentosaceus FBB63C", "setting": "P. pentosaceus FBB63C", "result": "+"}, {"measurement": "inhibition of L. monocytogenes 04", "setting": "L. monocytogenes 04", "result": "+"}, {"measurement": "inhibition of L. monocytogenes 08", "setting": "L. monocytogenes 08", "result": "+"}, {"measurement": "inhibition of L. monocytogenes 36", "setting": "L. monocytogenes 36", "result": "+"}, {"measurement": "inhibition of L. monocytogenes 38", "setting": "L. monocytogenes 38", "result": "+"}, {"measurement": "inhibition of L. monocytogenes 59", "setting": "L. monocytogenes 59", "result": "+"}, {"measurement": "inhibition of L. monocytogenes 62", "setting": "L. monocytogenes 62", "result": "+"}, {"measurement": "inhibition of L. monocytogenes 69", "setting": "L. monocytogenes 69", "result": "+"}, {"measurement": "inhibition of S. mutans GS5", "setting": "S. mutans GS5", "result": "+"}, {"measurement": "inhibition of S. mutans V262", "setting": "S. mutans V262", "result": "-"}, {"measurement": "inhibition of B. subtilis RM125", "setting": "B. subtilis RM125", "result": "+"}, {"measurement": "inhibition of B. subtilis amylase^+", "setting": "B. subtilis amylase^+", "result": "+"}, {"measurement": "inhibition of L. lactis LLA 1.0", "setting": "L. lactis LLA 1.0", "result": "+"}, {"measurement": "inhibition of L. lactis LLA 2.0", "setting": "L. lactis LLA 2.0", "result": "+"}]}
